From the CheMixHub viscosity set
Where “and” joins values, the source holds several entries; their conditions need not be identical. Equal values may be shown once. ± gives the uncertainty stated by the source.

Experiment: xn = mol fraction of the nth substance listed

CC1COC(=O)O1 (stereo unspecified) + c1ccccc1
viscosity (298.15 K, 101 kPa, x1 = 0.0191): 0.6193 ± 0.025 mPa·s
viscosity (298.15 K, 101 kPa, x1 = 0.0416): 0.6341 ± 0.025 mPa·s
viscosity (298.15 K, 101 kPa, x1 = 0.0585): 0.6458 ± 0.026 mPa·s
viscosity (298.15 K, 101 kPa, x1 = 0.0771): 0.6595 ± 0.026 mPa·s
viscosity (298.15 K, 101 kPa, x1 = 0.103): 0.6758 ± 0.027 mPa·s
viscosity (298.15 K, 101 kPa, x1 = 0.1982): 0.7426 ± 0.029 mPa·s
viscosity (298.15 K, 101 kPa, x1 = 0.2949): 0.8478 ± 0.032 mPa·s
viscosity (298.15 K, 101 kPa, x1 = 0.3972): 0.9876 ± 0.037 mPa·s
viscosity (298.15 K, 101 kPa, x1 = 0.4938): 1.145 ± 0.042 mPa·s
viscosity (298.15 K, 101 kPa, x1 = 0.5987): 1.346 ± 0.049 mPa·s
viscosity (298.15 K, 101 kPa, x1 = 0.7002): 1.571 ± 0.056 mPa·s
viscosity (298.15 K, 101 kPa, x1 = 0.7907): 1.799 ± 0.063 mPa·s
viscosity (298.15 K, 101 kPa, x1 = 0.9024): 2.119 ± 0.073 mPa·s
viscosity (303.15 K, 101.3 kPa, x1 = 0.1049): 0.616 ± 0.011 mPa·s
viscosity (303.15 K, 101.3 kPa, x1 = 0.2087): 0.7019 ± 0.012 mPa·s
viscosity (303.15 K, 101.3 kPa, x1 = 0.3114): 0.798 ± 0.014 mPa·s
viscosity (303.15 K, 101.3 kPa, x1 = 0.4131): 0.9074 ± 0.015 mPa·s
viscosity (303.15 K, 101.3 kPa, x1 = 0.5136): 1.035 ± 0.017 mPa·s
viscosity (303.15 K, 101.3 kPa, x1 = 0.6131): 1.194 ± 0.02 mPa·s
viscosity (303.15 K, 101.3 kPa, x1 = 0.7109): 1.379 ± 0.023 mPa·s
viscosity (303.15 K, 101.3 kPa, x1 = 0.8083): 1.599 ± 0.026 mPa·s
viscosity (303.15 K, 101.3 kPa, x1 = 0.9046): 1.853 ± 0.03 mPa·s
viscosity (308.15 K, 101 kPa, x1 = 0.0191): 0.5377 ± 0.022 mPa·s
viscosity (308.15 K, 101 kPa, x1 = 0.0416): 0.5545 ± 0.023 mPa·s
viscosity (308.15 K, 101 kPa, x1 = 0.0585): 0.5677 ± 0.023 mPa·s
viscosity (308.15 K, 101 kPa, x1 = 0.0771): 0.5824 ± 0.024 mPa·s
viscosity (308.15 K, 101 kPa, x1 = 0.103): 0.6037 ± 0.024 mPa·s
viscosity (308.15 K, 101 kPa, x1 = 0.1982): 0.6908 ± 0.027 mPa·s
viscosity (308.15 K, 101 kPa, x1 = 0.2949): 0.7937 ± 0.031 mPa·s
viscosity (308.15 K, 101 kPa, x1 = 0.3972): 0.9193 ± 0.035 mPa·s
viscosity (308.15 K, 101 kPa, x1 = 0.4938): 1.055 ± 0.039 mPa·s
viscosity (308.15 K, 101 kPa, x1 = 0.5987): 1.221 ± 0.044 mPa·s
viscosity (308.15 K, 101 kPa, x1 = 0.7002): 1.402 ± 0.05 mPa·s
viscosity (308.15 K, 101 kPa, x1 = 0.7907): 1.582 ± 0.056 mPa·s
viscosity (308.15 K, 101 kPa, x1 = 0.9024): 1.826 ± 0.064 mPa·s

COc1ccccc1 + c1ccccc1
viscosity (293.15 K, 101.33 kPa, x1 = 0.0945): 0.7297 ± 0.038 mPa·s
viscosity (293.15 K, 101.33 kPa, x1 = 0.1951): 0.7551 ± 0.04 mPa·s
viscosity (293.15 K, 101.33 kPa, x1 = 0.2984): 0.8001 ± 0.042 mPa·s
viscosity (293.15 K, 101.33 kPa, x1 = 0.3942): 0.8413 ± 0.044 mPa·s
viscosity (293.15 K, 101.33 kPa, x1 = 0.5178): 0.9017 ± 0.047 mPa·s
viscosity (293.15 K, 101.33 kPa, x1 = 0.6157): 0.9434 ± 0.049 mPa·s
viscosity (293.15 K, 101.33 kPa, x1 = 0.6574): 0.9641 ± 0.051 mPa·s
viscosity (293.15 K, 101.33 kPa, x1 = 0.8116): 1.052 ± 0.055 mPa·s
viscosity (293.15 K, 101.33 kPa, x1 = 0.906): 1.097 ± 0.058 mPa·s
viscosity (298.15 K, 101.33 kPa, x1 = 0.0945): 0.6765 ± 0.036 mPa·s
viscosity (298.15 K, 101.33 kPa, x1 = 0.1): 0.635 ± 0.017 mPa·s
viscosity (298.15 K, 101.33 kPa, x1 = 0.1025): 0.6396 ± 0.017 mPa·s
viscosity (298.15 K, 101.33 kPa, x1 = 0.1951): 0.7095 ± 0.037 mPa·s
viscosity (298.15 K, 101.33 kPa, x1 = 0.2): 0.671 ± 0.013 mPa·s and 0.671 ± 0.018 mPa·s
viscosity (298.15 K, 101.33 kPa, x1 = 0.2004): 0.6806 ± 0.018 mPa·s
viscosity (298.15 K, 101.33 kPa, x1 = 0.2984): 0.7437 ± 0.039 mPa·s
viscosity (298.15 K, 101.33 kPa, x1 = 0.3003): 0.7121 ± 0.019 mPa·s
viscosity (298.15 K, 101.33 kPa, x1 = 0.3942): 0.7772 ± 0.041 mPa·s
viscosity (298.15 K, 101.33 kPa, x1 = 0.4): 0.742 ± 0.02 mPa·s
viscosity (298.15 K, 101.33 kPa, x1 = 0.402): 0.7553 ± 0.02 mPa·s
viscosity (298.15 K, 101.33 kPa, x1 = 0.4985): 0.7849 ± 0.021 mPa·s
viscosity (298.15 K, 101.33 kPa, x1 = 0.5): 0.782 ± 0.016 mPa·s and 0.782 ± 0.021 mPa·s
viscosity (298.15 K, 101.33 kPa, x1 = 0.5178): 0.8397 ± 0.044 mPa·s
viscosity (298.15 K, 101.33 kPa, x1 = 0.6): 0.821 ± 0.022 mPa·s
viscosity (298.15 K, 101.33 kPa, x1 = 0.6157): 0.88 ± 0.046 mPa·s
viscosity (298.15 K, 101.33 kPa, x1 = 0.6574): 0.9047 ± 0.048 mPa·s
viscosity (298.15 K, 101.33 kPa, x1 = 0.699): 0.8709 ± 0.023 mPa·s
viscosity (298.15 K, 101.33 kPa, x1 = 0.8): 0.907 ± 0.025 mPa·s
viscosity (298.15 K, 101.33 kPa, x1 = 0.805): 0.9112 ± 0.024 mPa·s
viscosity (298.15 K, 101.33 kPa, x1 = 0.8116): 0.9812 ± 0.051 mPa·s
viscosity (298.15 K, 101.33 kPa, x1 = 0.9013): 0.9506 ± 0.025 mPa·s
viscosity (303.15 K, 101.33 kPa, x1 = 0.1025): 0.6033 ± 0.016 mPa·s
viscosity (303.15 K, 101.33 kPa, x1 = 0.2004): 0.6433 ± 0.017 mPa·s
viscosity (303.15 K, 101.33 kPa, x1 = 0.3003): 0.6712 ± 0.018 mPa·s
viscosity (303.15 K, 101.33 kPa, x1 = 0.402): 0.7045 ± 0.019 mPa·s
viscosity (303.15 K, 101.33 kPa, x1 = 0.4985): 0.738 ± 0.019 mPa·s
viscosity (303.15 K, 101.33 kPa, x1 = 0.5991): 0.7765 ± 0.021 mPa·s
viscosity (303.15 K, 101.33 kPa, x1 = 0.699): 0.8121 ± 0.022 mPa·s
viscosity (303.15 K, 101.33 kPa, x1 = 0.805): 0.8545 ± 0.023 mPa·s
viscosity (303.15 K, 101.33 kPa, x1 = 0.9013): 0.8883 ± 0.024 mPa·s
viscosity (308.15 K, 101.33 kPa, x1 = 0.1): 0.556 ± 0.015 mPa·s
viscosity (308.15 K, 101.33 kPa, x1 = 0.1025): 0.5736 ± 0.015 mPa·s
viscosity (308.15 K, 101.33 kPa, x1 = 0.2): 0.587 ± 0.016 mPa·s
viscosity (308.15 K, 101.33 kPa, x1 = 0.2004): 0.6196 ± 0.016 mPa·s
viscosity (308.15 K, 101.33 kPa, x1 = 0.3003): 0.6447 ± 0.017 mPa·s
viscosity (308.15 K, 101.33 kPa, x1 = 0.4): 0.649 ± 0.018 mPa·s
viscosity (308.15 K, 101.33 kPa, x1 = 0.402): 0.675 ± 0.018 mPa·s
viscosity (308.15 K, 101.33 kPa, x1 = 0.4985): 0.7086 ± 0.019 mPa·s
viscosity (308.15 K, 101.33 kPa, x1 = 0.5): 0.68 ± 0.018 mPa·s
viscosity (308.15 K, 101.33 kPa, x1 = 0.5991): 0.7422 ± 0.02 mPa·s
viscosity (308.15 K, 101.33 kPa, x1 = 0.6): 0.715 ± 0.019 mPa·s
viscosity (308.15 K, 101.33 kPa, x1 = 0.699): 0.7763 ± 0.021 mPa·s
viscosity (308.15 K, 101.33 kPa, x1 = 0.8): 0.785 ± 0.021 mPa·s
viscosity (308.15 K, 101.33 kPa, x1 = 0.805): 0.8167 ± 0.022 mPa·s
viscosity (308.15 K, 101.33 kPa, x1 = 0.9013): 0.8509 ± 0.023 mPa·s
viscosity (313.15 K, 101.33 kPa, x1 = 0.1025): 0.5191 ± 0.014 mPa·s
viscosity (313.15 K, 101.33 kPa, x1 = 0.2004): 0.5555 ± 0.015 mPa·s
viscosity (313.15 K, 101.33 kPa, x1 = 0.3003): 0.5884 ± 0.016 mPa·s
viscosity (313.15 K, 101.33 kPa, x1 = 0.402): 0.6099 ± 0.016 mPa·s
viscosity (313.15 K, 101.33 kPa, x1 = 0.4985): 0.6337 ± 0.017 mPa·s
viscosity (313.15 K, 101.33 kPa, x1 = 0.5991): 0.669 ± 0.018 mPa·s
viscosity (313.15 K, 101.33 kPa, x1 = 0.699): 0.7007 ± 0.018 mPa·s
viscosity (313.15 K, 101.33 kPa, x1 = 0.805): 0.7318 ± 0.019 mPa·s
viscosity (313.15 K, 101.33 kPa, x1 = 0.9013): 0.7626 ± 0.02 mPa·s
viscosity (318.15 K, 101.33 kPa, x1 = 0.1): 0.489 ± 0.013 mPa·s
viscosity (318.15 K, 101.33 kPa, x1 = 0.2): 0.517 ± 0.014 mPa·s
viscosity (318.15 K, 101.33 kPa, x1 = 0.4): 0.57 ± 0.015 mPa·s
viscosity (318.15 K, 101.33 kPa, x1 = 0.5): 0.597 ± 0.016 mPa·s
viscosity (318.15 K, 101.33 kPa, x1 = 0.6): 0.626 ± 0.017 mPa·s
viscosity (318.15 K, 101.33 kPa, x1 = 0.8): 0.684 ± 0.019 mPa·s
viscosity (323.15 K, 101.33 kPa, x1 = 0.1): 0.46 ± 0.012 mPa·s
viscosity (323.15 K, 101.33 kPa, x1 = 0.2): 0.485 ± 0.0097 mPa·s and 0.485 ± 0.013 mPa·s
viscosity (323.15 K, 101.33 kPa, x1 = 0.4): 0.533 ± 0.014 mPa·s
viscosity (323.15 K, 101.33 kPa, x1 = 0.5): 0.559 ± 0.011 mPa·s and 0.559 ± 0.015 mPa·s
viscosity (323.15 K, 101.33 kPa, x1 = 0.6): 0.585 ± 0.016 mPa·s
viscosity (323.15 K, 101.33 kPa, x1 = 0.8): 0.64 ± 0.017 mPa·s
